Source: the METLIN SMRT retention time set (Domingo-Almenara et al. 2019)

Experiment: gradient 5% acetonitrile 3 min, to 50% in 2 min, to 85% in 15 min, held 3 min, 100 µL/min
Settings: column: Zorbax Extend-C18 2.1 x 50 mm; eluents: water / acetonitrile, 0.1% formic acid
Procedure, shortened: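 Over 3 months, pure standards in mixtures of ~100 molecules were run by HPLC coupled to a quadrupole time-of-flight mass spectrometer in positive and negative ionization mode. The column was a Zorbax Extend-C18 (2.1 × 50 mm, 1.8 μm) at 100 μL/min, eluted with water and acetonitrile each holding 0.1% formic acid, with 40 μL dead and 900 μL dwell volumes. Retention time was determined from adduct peaks chosen by software and checked manually.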

Compound	RP-LC retention time
CCOC(=O)C1CCN(C(=O)C2CCN(c3cnc4nccnc4c3)CC2)CC1	663 s
O=C(NOC[C@H](O)CO)c1ccc(F)c(F)c1Nc1ccc(I)cc1F	886 s
COc1ccccc1CNc1nccc(-n2nc(C)cc2C)n1	840 s
Cc1ccc2c(c1)OCC(=O)N2Cc1nc(-c2ccc(C)c(C)c2)no1	1160 s
O=C(NCc1ccc2c(c1)OCCCO2)c1ccc(Br)cc1	884 s
O=C(NCCN1CCOCC1)C1CCN(c2cnc(N3CCSCC3)nc2)CC1	590 s
CCc1nnc2ccc(NC(=O)Nc3ccccc3C)cn12	691 s
O=C(Cc1cccc(F)c1)N1CCOc2ccccc2C1	844 s
COc1ccc(S(=O)(=O)N2CCC(C(=O)Nc3nccs3)CC2)cc1	720 s
COc1ccc(S(=O)(=O)N2CCCC(C(=O)N3CCN(c4ccccc4)CC3)C2)cc1Cl (stereo unspecified)	1010 s
CC(=O)c1ccc(NC(=O)c2cnn(-c3ccc(Br)cc3)c2)cc1	948 s
CCN(C(=O)CN1C(=O)NC2(CCC(C)CC2)C1=O)c1cccc(C)c1 (stereo unspecified)	666 s
Cc1ccc(NC(=O)Cn2cnc3c(sc4nc(-c5ccccc5)ccc43)c2=O)c(Cl)c1	1120 s
CCn1ccc(-c2nc(-c3ccc4c(c3)nnn4CCN3CCCCC3)no2)n1	623 s
Cc1nc(-c2csc(S(=O)(=O)N3CCCC(C(=O)Nc4cc(F)ccc4F)C3)c2)no1 (stereo unspecified)	996 s
CN(Cc1ccccc1)S(=O)(=O)c1cc2c3c(c1)CCC(=O)N3CCC2	926 s
COc1ccc2c(c1)C1(CCN(C(=O)COc3ccccc3)C1)C(=O)N2C (stereo unspecified)	791 s
Cn1c(=O)c(N2CCN(C(=O)c3ccc(F)cc3Cl)CC2)nc2ccncc21	616 s
CCCNC(=O)C1CCN(c2ccc(SCC(=O)Nc3ccc(CC)cc3)nn2)CC1	694 s
Cc1ccc(NC(=O)N2CCC(c3nc(C(=O)N(C)C)c(C)o3)CC2)cc1C	726 s
CCOC(=O)c1cc(S(=O)(=O)N2CCCC2C(=O)NC(C)C)cn1C (stereo unspecified)	746 s
COc1cc(C)c(Sc2cnc(NC(=O)c3ccc(CNC(C)C(C)(C)C)cc3)s2)cc1C(=O)N1CCN(C(C)=O)CC1 (stereo unspecified)	762 s

Compound	RP-LC retention time
O=C(Cn1c(-c2cccs2)cc2cc(Cl)ccc21)NCCN1CCOCC1	706 s
COc1cccc(S(=O)(=O)N2CCc3nc(-c4ccccc4)ncc3C2)c1	1050 s
Cc1ccc(NC(=O)Nc2nccn(-c3cccc(Cl)c3)c2=O)cc1C	1090 s
CC1=C(C(=O)N2CCOCC2)C(c2ccc(F)c(Br)c2)C2=C(CCCC2=O)N1 (stereo unspecified)	659 s
COc1ccc(CNC(=O)c2cc3c(=O)n(C)ccc3n2C)cc1	664 s
CC(=O)c1ccc(NC(=O)c2cnc(-c3ccc(C(F)(F)F)cc3)nc2C)cc1	1030 s
CSc1ccc(-c2nc3c(C)cccn3c2Nc2ccc3c(c2)OCCO3)cc1	749 s
COc1ccc(S(=O)(=O)CCCC(=O)Nc2nccs2)cc1	661 s
CN1C(=O)CCC2(CNC(=O)Nc3ccccc3F)CCCC=C12 (stereo unspecified)	797 s
O=c1n(Cc2cccc(Cl)c2)nc2ccc(S(=O)(=O)N3CCCCCC3)cn12	1040 s
CC(C)CCNC(=O)NCCn1c(-c2ccc(F)cc2)nc2ccccc21	650 s
O=C(NCc1ccco1)C1(c2ccc(F)cc2)CC1	788 s
O=C(NCc1ccccn1)C1CCCN(c2ccc(Sc3ccc(Br)cc3)nn2)C1 (stereo unspecified)	702 s
Cc1cccc(C)c1Nc1c(-c2ccc(O)cc2)nc2ncccn12	658 s
O=C(Cc1cn2cc(F)ccc2n1)Nc1ccccc1	580 s
CCCCN1C(=O)c2cc(S(=O)(=O)N3CCc4ccccc43)ccc2Oc2cccnc21	1260 s
CCOC(=O)Cn1cnc2c(-c3ccc(Br)cc3)csc2c1=O	998 s
O=C(COc1ccc(F)cc1)N1C[C@@H]2C[C@H]1C[C@@H]2NS(=O)(=O)c1ccccc1	793 s
O=C(NC1CCN(C(=O)c2cc(-c3cccs3)[nH]n2)CC1)C1CCCCC1	722 s
Cc1ccc(C)c(N2CCN(c3ccnc(SCC(=O)NC(C)CCc4ccccc4)n3)CC2)c1 (stereo unspecified)	1020 s
CCCn1c(C)cnc1C1CN(S(=O)(=O)c2ccccc2Cl)C1	660 s
O=C(O)c1ccccc1-c1ccccc1C(=O)Nc1nc2ccccc2s1	867 s

Compound	RP-LC retention time
CC(C)Cc1nc(-c2ccccc2)oc1CC(=O)NCc1cccc(Cl)c1	1090 s
Cn1cnc2cc(-c3noc(CNC(=O)c4ccccc4)n3)ccc21	614 s
COc1ccc2nc3oc(C(=O)N4CCN(Cc5ccc6c(c5)OCO6)CC4)cc3cc2c1	670 s
COc1ccc2c(c1)C1(CCN(C(=O)c3ccc(Cl)cc3)C1)C(=O)N2 (stereo unspecified)	767 s
Cn1nc(C(=O)N2CCC(C(=O)NC3CCCCCC3)CC2)c2c1CCN(C(=O)c1ccccc1)C2	742 s
O=C(Nc1ccc2c(c1)CCN2S(=O)(=O)c1ccccc1)Nc1ccccc1Cl	1030 s
O=S(=O)(NCc1ccccc1F)c1c[nH]c2ncccc12	708 s
CC(CNC(=O)c1nc(N2CCOCC2)c2ccccc2n1)c1ccccc1 (stereo unspecified)	726 s
CSc1ccc(-c2nc3cnccn3c2Nc2ccc(C)cc2C)cc1	644 s
c1ccc(-c2noc(NCc3ccc4c(c3)OCO4)n2)cc1	974 s
CCOC(=O)c1cc(S(=O)(=O)N2CCCC2C(=O)NCCC2=CCCCC2)cn1C (stereo unspecified)	985 s
CC1CCN(c2nnc(-n3cccc3CN3CCN(c4ccccn4)CC3)s2)CC1	658 s
CSc1ccc(CNc2cc(-n3nc(C)cc3C)ncn2)cc1	1000 s
CCOC(=O)c1oc2ccccc2c1NC(=O)c1ccccc1S(C)(=O)=O	800 s
CCc1noc(NC(C)=O)c1-c1ccc(C)c(S(=O)(=O)Nc2cccc(C)c2C)c1	897 s
Cc1nc2cc(-c3noc(Cc4ccc(F)cc4)n3)ccc2o1	983 s
CC1=C(c2ccc(C)cc2)S(=O)(=O)N=C1N1CCCN(C(=O)c2ccsc2)CC1	821 s
CCOc1ccccc1NC(=O)N1CCCC1c1nc(-c2ccccc2OC)no1 (stereo unspecified)	809 s
CCOC(=O)CNC(=O)N1CCN(c2nc3ccccc3n2CC)CC1	602 s
O=C1CCCN1CCCN1C(=O)[C@H]2CN(Cc3ccc(F)cc3Cl)C[C@H]2C1=O	658 s
O=S(=O)(c1cccc2nsnc12)N1CCCC(Cc2noc(-c3cnccn3)n2)C1 (stereo unspecified)	858 s
COCCN1CC2(CCN(S(=O)(=O)c3cc(F)cc(F)c3)CC2)C1c1ccccc1 (stereo unspecified)	718 s
